This is an account of results in the RepoRT retention time repository (doi:10.1021/acs.analchem.2c02893).

This data set can be described thus: RP, Thermo Scientific Acclaim RSLC 120 C18, 100 × 2.1 mm, 2.2 µm, 30 °C, 0.2 mL/min, estimated dead time 1.1 min; A: 90% water + 10% methanol + 0.01% formic acid + 5 mM ammonium formate, pH 3.61; B: methanol + 0.01% formic acid + 5 mM ammonium formate, pH 3.61; gradient (min/%B) 0/1 1/1 2/39 13/99.9 15/99.9 15.1/1 20.1/1. The note with it: stereoisomer not certain.
`CN(C)C(=O)Nc1cccc(C(F)(F)F)c1` [Fluometuron]: the LC retention time is 7.85 min.

`CCCCCn1cc(C(=O)Cc2ccccc2C)c2ccccc21` [JWH-251]: the LC retention time is 12.2 min.

Consider `c1ccc2c(c1)Cc1ccccc1N1CCNCC21` (configuration not stated) [Mianserine-Nor], for which the LC retention time is 6.86 min.

For `Nc1c(Br)cc(Br)cc1CNC1CCC(O)CC1` (configuration not stated) [Ambroxol], the LC retention time is 6.04 min.

For the molecule `CSc1nc(NC(C)C)nc(NC(C)C)n1` [Prometryn], the LC retention time was 10.1 min.

For the molecule `COC(=O)C(NC(=O)c1nn(Cc2ccc(F)cc2)c2ccccc12)C(C)C` (configuration not stated) [FUB-AMB], the LC retention time was 10.8 min.

Take `CCCN(CCC)c1c([N+](=O)[O-])cc(S(N)(=O)=O)cc1[N+](=O)[O-]` [Oryzalin]: the LC retention time is 10.3 min.

Regarding `OC(CCN1CCCCC1)(c1ccccc1)C1CC2C=CC1C2` (configuration not stated) [Biperidene], the LC retention time is 7.63 min.

As to `COCCOCCOCCOC` [Triglyme], the LC retention time is 4.28 min.

Take `CN(C(=O)COc1nc2ccccc2s1)c1ccccc1` [Mefenacet]: the LC retention time was 9.83 min.

As to `CCC1C2CC3C4N(C)c5ccccc5C45CC(C2C5O)[N+]3(CC(O)CN(CC)CC)C1O` (configuration not stated) [Detajmium], the LC retention time is 4.62 min.

As to `CC(=O)OC1C=CC2C3Cc4ccc(O)c5c4C2(CCN3C)C1O5` (configuration not stated) [MAM (6-O-Monoacetylmorphine)], the LC retention time was 3.75 min.

On to `C=C(Cl)CSC(=S)N(CC)CC` [Vegadex (Sulfallate)], for which the LC retention time was 11.1 min.

As to `C=CCC(C(=O)NC(N)=O)C(C)C` (configuration not stated) [Apronalide], the LC retention time is 6.94 min.

For the molecule `CC(C)C(O)(C(=O)OCC1=CCN2CCC(O)C12)C(C)O` (configuration not stated) [Lycopsamine], the LC retention time was 3.65 min.

As for `C=C(C)C1Cc2c(ccc3c2OC2COc4cc(OC)c(OC)cc4C2C3=O)O1` (configuration not stated) [Rotenone], the LC retention time was 10.5 min.

For the molecule `O=C(O)c1cc(Oc2ccc(C(F)(F)F)cc2Cl)ccc1[N+](=O)[O-]` [Acifluorfen], the LC retention time was 8.95 min.

Regarding `Cc1cc(Cl)ccc1OCCCC(=O)O` [MCPB], the LC retention time is 10.1 min.

On to `COP(=S)(OC)Oc1cc(Cl)c(Cl)cc1Cl` [Fenclofos.Ronnel], for which the LC retention time was 12.5 min.

For the molecule `CNc1nc(NC(C)C)nc(SC)n1` [Desmetryn], the LC retention time was 8.17 min.

For the molecule `O=C(O)C1C2CCC(O2)C1C(=O)O` (configuration not stated) [Endothal], the LC retention time was 3.2 min.

As for `CCCCCn1cc(C(=O)c2cccc3ccccc23)c2c(O)cccc21` [JWH-018-M-4-OH-Ind], the LC retention time was 12.5 min.

With `CC(CCc1ccc(O)cc1)NCCc1ccc(O)c(O)c1` (configuration not stated) [Dobutamine], the LC retention time was 4.21 min.

Consider `CCS(=O)c1c(C#N)nn(-c2c(Cl)cc(C(F)(F)F)cc2Cl)c1N` (configuration not stated) [Ethiprole], for which the LC retention time is 9.32 min.

As to `C=C1CC23CC1(O)CCC2C12C=CC(O)C(C)(C(=O)O1)C2C3C(=O)O` (configuration not stated) [Gibberellic acid], the LC retention time is 4.91 min.

As for `CCOP(=S)(OCC)SCSP(=S)(OCC)OCC` [Ethion], the LC retention time was 12.4 min.

On to `O=C(Oc1cccc2cccnc12)c1cn(Cc2ccc(F)cc2)c2ccccc12` [FUB-PB-22], for which the LC retention time was 11.1 min.

On to `CC(C)(C)NCC(O)COc1cc(C(=O)O)ccc1Cl` (configuration not stated) [Bupranolol- 5-Carboxy], for which the LC retention time is 5.01 min.

In the case of `O=C(Oc1ccccc1)c1ccccc1C(=O)Oc1ccccc1` [Phthalate-Diphenyl], the LC retention time was 11.2 min.

For `CCCOP(=O)(OCCC)Oc1ccc(SC)cc1` [Propaphos], the LC retention time is 10.8 min.

Turning to `COC(=O)C(Cc1ccccc1)NC(=O)C(N)CC(=O)O` (configuration not stated) [Aspartame], the LC retention time was 5.01 min.

As for `Cc1cnc(C(=O)NCCc2ccc(S(=O)(=O)NC(=O)NC3CCCCC3)cc2)cn1` [Glipizide], the LC retention time was 8.11 min.

Take `CNC(=O)N(C)c1nnc(C(C)(C)C)s1` [Tebuthiuron]: the LC retention time was 7.25 min.

For the molecule `CC12CCC3c4ccc(O)cc4CCC3C1CC(O)C2O` (configuration not stated) [E3  estriol (1-3-5(10)-estratrien-3 16-17-triol)], the LC retention time was 6.83 min.

Consider `O=C1CN(N=Cc2ccc([N+](=O)[O-])o2)C(=O)N1` [Nitrofurantoin], for which the LC retention time is 4.14 min.

Consider `CN(CC1(C)CCCO1)S(=O)(=O)c1ccc(Cl)c(S(N)(=O)=O)c1` (configuration not stated) [Mefruside], for which the LC retention time is 6.56 min.

For the molecule `CCCNC(C)Cc1ccccc1` (configuration not stated) [Amphetamine-N-Propyl], the LC retention time was 4.83 min.

For `O=C(NCCN1CCOCC1)c1ccc(Cl)cc1` [Moclobemide], the LC retention time was 4.98 min.

Turning to `CC(=O)Nc1ccc(O)c(C(=O)O)c1` [N-Acetyl mesalazine], the LC retention time was 3.43 min.

On to `Cc1ccc(C(C)NC(=O)C(NC(=O)OC(C)C)C(C)C)cc1` (configuration not stated) [Iprovalicarb], for which the LC retention time was 9.82 min.

Consider `COC(=O)Nc1nc2ccc(C(=O)c3ccc(F)cc3)cc2[nH]1` [Flubendazole], for which the LC retention time is 8.65 min.

As to `CON=C(C(=O)OC)c1ccccc1COc1ccccc1C` [Kresoxim-methyl], the LC retention time was 10.8 min.

As to `OCCN1CCN(CCCN2c3ccccc3Sc3cccnc32)CC1` [Oxypendyl], the LC retention time is 7.57 min.

For `CC1(C)C(C=C(Cl)Cl)C1C(=O)OC(C#N)c1ccc(F)c(Oc2ccccc2)c1` (configuration not stated) [Cyfluthrin (Baythroid)], the LC retention time is 13 min.

With `CSc1nc(NC2CC2)nc(NC(C)(C)C)n1` [Irgarol], the LC retention time is 10.5 min.

Turning to `COc1cc(NC(C)CCCN)c2ncccc2c1` (configuration not stated) [Primaquine], the LC retention time was 6.82 min.

`CNC(=O)Oc1ccc2c(c1)C1(C)CCN(C)C1N2C` (configuration not stated) [Physostigmine]: the LC retention time is 3.89 min.

Regarding `CC1=C(C(=O)O)N2C(=O)C(NC(=O)C(N)c3ccccc3)C2SC1` (configuration not stated) [Cefalexin], the LC retention time was 4.08 min.

Regarding `CN1CCCC1CCOC(C)(c1ccccc1)c1ccc(Cl)cc1` (configuration not stated) [Clemastine], the LC retention time was 9.31 min.

With `COc1ccc2c(c1)c(CC(=O)O)c(C)n2C(=O)c1ccc(Cl)cc1` [Indomethacin], the LC retention time is 10.3 min.

As to `C[N+]12CCC(CC1)C(OC(=O)C(O)(c1ccccc1)c1ccccc1)C2` (configuration not stated) [Clidinium (I+)], the LC retention time is 5.84 min.

With `CC1(C)C(C(=O)c2cn(Cc3ccc(F)cc3)c3ccccc23)C1(C)C` [FUB-144], the LC retention time was 12.2 min.

`CCCc1cc(C(N)=S)ccn1` [Protionamide]: the LC retention time was 6.36 min.

Regarding `CC(C)CN(CC(O)C(Cc1ccccc1)NC(=O)OC1COC2OCCC12)S(=O)(=O)c1ccc(N)cc1` (configuration not stated) [Darunavir], the LC retention time is 8.21 min.

With `COC(=O)C1=C(C)NC(C)=C(C(=O)OC)C1c1ccccc1[N+](=O)[O-]` [Nifedipine], the LC retention time was 8.31 min.

`Nc1ccc(S(=O)(=O)Nc2nccs2)cc1` [Sulfathiazole]: the LC retention time is 3.63 min.

Consider `Cc1ccc(NS(=O)(=O)N(C)C)cc1` [DMST (N.N-Dimethyl-N'-p-tolylsulphamide)], for which the LC retention time was 7.25 min.
